Test system: not listed separately
Test: WST-1 proliferation assay, MCF-7
Assay type: cell-based
Conditions: human, MCF-7 cells (breast adenocarcinoma), vs 0.1% DMSO control = 100%, mean ± standard deviation
Procedure: (§1) A thorough analysis of antiproliferative activity was performed across various cell culture types representing different histotypes: leukemia (Jurkat, MOLT-4), lung adenocarcinoma (A549), colorectal adenocarcinoma (HT-29), pancreatic carcinoma (PANC-1), breast adenocarcinoma (MCF-7), osteosarcoma (SAOS-2), and one non-cancerous cell line (fetal lung fibroblasts MRC-5). The cell lines were exposed to the newly synthesized compounds at a concentration of 100 μM for 48 h in a single-dose treatment. Changes in cell proliferation compared to the vehicle 0.1% dimethyl sulfoxide (DMSO) control were determined using the WST-1 assay, which is based on mitochondrial dehydrogenase metabolic activities. […] The overall cytotoxic activity of each compound was expressed as growth percent (GP) – the mean of the proliferation of all cell lines treated with the same compound.
(§2) Selected human tumor and non-tumor cell lines Jurkat (acute T-cell leukemia), MOLT-4 (acute lymphoblastic leukemia), A549 (lung carcinoma), HT-29 (colorectal adenocarcinoma), PANC-1 (pancreas epithelioid carcinoma), MCF-7 (breast adenocarcinoma), SAOS-2 (osteosarcoma) and MRC-5 (normal lung fibroblasts) were purchased from either American Type Culture Collection (ATCC; VA, USA) or Sigma-Aldrich (St. Louis, MO, USA) and cultured according to the provider's culture method guidelines. All cell lines were maintained at 37 °C in a humidified 5% carbon dioxide and 95% air incubator. Cells in the maximum range of either 10 passages for the adherent cell lines (A549, HT-29, PANC-1, MCF-7, SAOS-2, and MRC-5), or 20 passages for suspension cell lines (Jurkat, MOLT-4,) and in an exponential growth phase were used for this study. Screening of the antiproliferative effect and growth percent calculation were conducted as follows: each cell line was seeded at previously established optimal density (1–50 × 10^3 cells per well) in a 96-well plate (TPP, Trasadingen, Switzerland) and cells were allowed to settle overnight. Cells were treated for 48 h with compounds at a final concentration of 100 μM. At the end of the cultivation period, the WST-1 proliferation assay (Roche, Basel, Switzerland) was performed according to the manufacturer's protocol. The absorbance was measured at 440 nm using a Tecan Spark multimode microplate reader (Tecan, Mannedorf, Switzerland). Each value is the mean of three independent experiments and represents the percentage of proliferation (100% cell proliferation for 0.1% DMSO mock-treated control cells). The GP value was calculated for each compound tested. GP represents the mean of the percentage proliferation decrease of all cell lines treated with the same compound.

Structure (SMILES)	viability at 48 h, 100 µM
O=[N+]([O-])c1cc(OCC(O)CN2CCN(CCO)CC2)ccc1Cl (centres unmarked) [Compound 5, 1-(4-(2-Hydroxyethyl)piperazin-1-yl)-3-(4-chloro-3-nitrophenoxy)propan-2-ol]	104 ± 11%
OCCN1CCN(CC(O)COc2cccc(Cl)c2)CC1 (centres unmarked) [Compound 6, 1-(4-(2-Hydroxyethyl)piperazin-1-yl)-3-(3-chlorophenoxy)propan-2-ol]	86 ± 12%
NCCCNCCS [WR1065, reference compound]	2%
NCCCNCCSP(=O)(O)O [WR2721, amifostine, reference compound]	7 ± 2%

Test system: not listed separately
Test: WST-1 proliferation assay, SAOS-2
Assay type: cell-based
Conditions: human, SAOS-2 cells (osteosarcoma), vs 0.1% DMSO control = 100%, mean ± standard deviation
Procedure: as §1, §2

Structure (SMILES)	viability at 48 h, 100 µM
O=[N+]([O-])c1cc(OCC(O)CN2CCN(CCO)CC2)ccc1Cl (centres unmarked) [Compound 5, 1-(4-(2-Hydroxyethyl)piperazin-1-yl)-3-(4-chloro-3-nitrophenoxy)propan-2-ol]	89 ± 3%
OCCN1CCN(CC(O)COc2cccc(Cl)c2)CC1 (centres unmarked) [Compound 6, 1-(4-(2-Hydroxyethyl)piperazin-1-yl)-3-(3-chlorophenoxy)propan-2-ol]	120 ± 26%
NCCCNCCS [WR1065, reference compound]	7 ± 4%
NCCCNCCSP(=O)(O)O [WR2721, amifostine, reference compound]	9 ± 3%

Test system: not listed separately
Test: WST-1 proliferation assay, HT-29
Assay type: cell-based
Conditions: human, HT-29 cells (colorectal adenocarcinoma), vs 0.1% DMSO control = 100%, mean ± standard deviation
Procedure: as §1, §2

Structure (SMILES)	viability at 48 h, 100 µM
O=[N+]([O-])c1cc(OCC(O)CN2CCN(CCO)CC2)ccc1Cl (centres unmarked) [Compound 5, 1-(4-(2-Hydroxyethyl)piperazin-1-yl)-3-(4-chloro-3-nitrophenoxy)propan-2-ol]	95 ± 6%
OCCN1CCN(CC(O)COc2cccc(Cl)c2)CC1 (centres unmarked) [Compound 6, 1-(4-(2-Hydroxyethyl)piperazin-1-yl)-3-(3-chlorophenoxy)propan-2-ol]	85 ± 7%
NCCCNCCS [WR1065, reference compound]	20 ± 2%
NCCCNCCSP(=O)(O)O [WR2721, amifostine, reference compound]	27 ± 3%

Test system: not listed separately
Test: WST-1 proliferation assay, A549
Assay type: cell-based
Conditions: human, A549 cells (lung carcinoma), vs 0.1% DMSO control = 100%, mean ± standard deviation
Procedure: as §1, §2

Structure (SMILES)	viability at 48 h, 100 µM
O=[N+]([O-])c1cc(OCC(O)CN2CCN(CCO)CC2)ccc1Cl (centres unmarked) [Compound 5, 1-(4-(2-Hydroxyethyl)piperazin-1-yl)-3-(4-chloro-3-nitrophenoxy)propan-2-ol]	109 ± 9%
OCCN1CCN(CC(O)COc2cccc(Cl)c2)CC1 (centres unmarked) [Compound 6, 1-(4-(2-Hydroxyethyl)piperazin-1-yl)-3-(3-chlorophenoxy)propan-2-ol]	99 ± 11%
NCCCNCCS [WR1065, reference compound]	3%
NCCCNCCSP(=O)(O)O [WR2721, amifostine, reference compound]	5%

Test system: not listed separately
Test: WST-1 proliferation assay, MRC-5
Assay type: cell-based
Conditions: human, MRC-5 cells (normal lung fibroblasts), vs 0.1% DMSO control = 100%, mean ± standard deviation
Procedure: as §1, §2

Structure (SMILES)	viability at 48 h, 100 µM
O=[N+]([O-])c1cc(OCC(O)CN2CCN(CCO)CC2)ccc1Cl (centres unmarked) [Compound 5, 1-(4-(2-Hydroxyethyl)piperazin-1-yl)-3-(4-chloro-3-nitrophenoxy)propan-2-ol]	98 ± 3%
OCCN1CCN(CC(O)COc2cccc(Cl)c2)CC1 (centres unmarked) [Compound 6, 1-(4-(2-Hydroxyethyl)piperazin-1-yl)-3-(3-chlorophenoxy)propan-2-ol]	97 ± 1%
NCCCNCCS [WR1065, reference compound]	3 ± 1%
NCCCNCCSP(=O)(O)O [WR2721, amifostine, reference compound]	8 ± 4%

Test system: not listed separately
Test: WST-1 proliferation assay, Jurkat
Assay type: cell-based
Conditions: human, Jurkat cells (acute T-cell leukemia), vs 0.1% DMSO control = 100%, mean ± standard deviation
Procedure: as §1, §2

Structure (SMILES)	viability at 48 h, 100 µM
O=[N+]([O-])c1cc(OCC(O)CN2CCN(CCO)CC2)ccc1Cl (centres unmarked) [Compound 5, 1-(4-(2-Hydroxyethyl)piperazin-1-yl)-3-(4-chloro-3-nitrophenoxy)propan-2-ol]	85 ± 3%
OCCN1CCN(CC(O)COc2cccc(Cl)c2)CC1 (centres unmarked) [Compound 6, 1-(4-(2-Hydroxyethyl)piperazin-1-yl)-3-(3-chlorophenoxy)propan-2-ol]	89 ± 5%
NCCCNCCS [WR1065, reference compound]	1%
NCCCNCCSP(=O)(O)O [WR2721, amifostine, reference compound]	10 ± 12%

Test system: Whole blood from healthy human donors
Test: Dicentric chromosome assay (DCA)
Assay type: cell-based
Conditions: 10 μM; 3 Gy gamma; 30 min pre-exposure; lower concentrations experiment
Procedure: The radioprotective effect of eight compounds was assessed using the cytogenetic method of DCA. DCA is known for its high sensitivity to radiation exposure and its specificity, and is thus considered a gold standard for biological dosimetry. It is also applicable to reveal the radioprotective potential of substances, as their effect is to protect DNA from forming dicentric chromosomes after IR exposure. This assay included six newly synthesized substances as well as amifostine (WR2721) and its active form (WR1065). WR2721 and WR1065 served as benchmarks, allowing us to measure the radioprotective effect of our compounds against these well-established radioprotectors. Whole blood from healthy human donors was utilized for DCA, and it was irradiated with 3 Gy gamma radiation after exposure to the tested compounds. Each experiment included irradiated and non-irradiated controls. The experiments were conducted at two different concentrations of the substances. For the newly synthesized compounds, 100 μM and an optimal non-toxic concentration which varied between 200–1000 μM were used. […] The results were interpreted as the number of dicentric chromosomes per cell.
To express the radioprotective effect the radioprotection factor (RF) was calculated as the […] (Table 2). RF expresses how many-fold the DC count in the sample decreased compared to the irradiated control.
Blood samples from healthy male donors were taken in heparinized tubes, with informed consent and the approval of a local ethics committee. Blood samples (1 ml) were treated with eight different substances (WR2721, WR1065, and 1–6) in two different concentrations. Non-treated irradiated and non-treated non-irradiated controls were included. All samples were exposed to a single dose of 3 Gy of gamma radiation (at the dose rate of 0.6 Gy min^−1, using the ^60Co Chisobalt, Chirana, Prague, Czech Republic). […] The dose of 3 Gy was selected to ensure a sufficient quantity of dicentric chromosomes in lymphocytes. Immediately after irradiation, the samples were placed in a humidified atmosphere with 5% CO2 at 37 °C for 30 min. Treated and irradiated blood samples were added to T-25 cultivation flasks containing 10 ml RPMI 1640 with 20% fetal bovine serum and 2% phytohaemagglutinin (all Gibco by Thermo Fisher Scientific, Waltham, MA, USA). Colcemid at a final concentration of 0.25 μg ml^−1 (Gibco by Thermo Fisher Scientific, Waltham, MA, USA) was added to each culture tube 48 h after culture initiation. Cells were cultivated for another 2 h and then harvested.
At the harvest time (total time 50 h), cell pellets obtained after centrifugation at 600 × g for 3 min were resuspended and treated with 10 ml of prewarmed 0.075 M solution of potassium chloride (Gibco by Thermo Fisher Scientific, Waltham, MA, USA) for 20 min. After another centrifugation, cells were treated three times with fixative solution consisting of 3 : 1 (v/v) methanol : acetic acid (penta Chemicals, Prague, Czech Republic). Fixed cells were dropped on ice-cold microscope slides, air-dried overnight, and stained with 5% Giemsa solution (P-Lab, Prague, Czech Republic) for 6 min. Prepared slides were evaluated using automated metaphase finding systems. The slides with metaphases were analyzed by Axio Imager 2 (Carl Zeiss Microscopy GmbH, Göttingen, Germany) and Metafer 4 software (MetaSystems Hard & Software GmbH, Altlußheim, Germany). At first, the images of the metaphases in lower magnification were acquired (MSearch TL mode). Following that, the images of good-quality metaphases in higher resolution were acquired (AutoCapt mode). The data obtained were analyzed manually (manual selection of good-quality metaphases and dicentric chromosome detection).

Structure (SMILES)	RF (radioprotection factor)
NCCCNCCS [WR1065, reference compound]	1.59
NCCCNCCSP(=O)(O)O [WR2721, amifostine, reference compound]	1.33

Same assay, conditions: 100 μM; 3 Gy gamma; 30 min pre-exposure; higher concentrations experiment

Structure (SMILES)	RF (radioprotection factor)
NCCCNCCS [WR1065, reference compound]	1.96
NCCCNCCSP(=O)(O)O [WR2721, amifostine, reference compound]	1.45

Same assay, conditions: 100 μM; 3 Gy gamma; 60 min pre-exposure; lower concentrations experiment

Structure (SMILES)	RF (radioprotection factor)
O=[N+]([O-])c1cc(OCC(O)CN2CCN(CCO)CC2)ccc1Cl (centres unmarked) [Compound 5, 1-(4-(2-Hydroxyethyl)piperazin-1-yl)-3-(4-chloro-3-nitrophenoxy)propan-2-ol]	1.65
OCCN1CCN(CC(O)COc2cccc(Cl)c2)CC1 (centres unmarked) [Compound 6, 1-(4-(2-Hydroxyethyl)piperazin-1-yl)-3-(3-chlorophenoxy)propan-2-ol]	2.1

Same assay, conditions: 200 μM (optimal non-toxic concentration); 3 Gy gamma; 60 min pre-exposure

Structure (SMILES)	RF (radioprotection factor)
O=[N+]([O-])c1cc(OCC(O)CN2CCN(CCO)CC2)ccc1Cl (centres unmarked) [Compound 5, 1-(4-(2-Hydroxyethyl)piperazin-1-yl)-3-(4-chloro-3-nitrophenoxy)propan-2-ol]	1.91

Same assay, conditions: 500 μM (optimal non-toxic concentration); 3 Gy gamma; 60 min pre-exposure

Structure (SMILES)	RF (radioprotection factor)
OCCN1CCN(CC(O)COc2cccc(Cl)c2)CC1 (centres unmarked) [Compound 6, 1-(4-(2-Hydroxyethyl)piperazin-1-yl)-3-(3-chlorophenoxy)propan-2-ol]	2.69
